Experimental data reported in PubChem BioAssay AID2060504 (Molecular Pharmacology Branch, DTP, NCI, 2025).

Test system: 636577-100-R-J1-PDC complex spheroid viability
Assay: Anticancer human tumor 636577-100-R-J1-PDC patient-derived endometrial adenocarcinoma cell line growth inhibition [GQUAD]
Settings: for IC50: curve of first compound; for viability, T/C: stronger effect = lower value
Summary of the method: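 Multi-cell-type spheroids of tumor cells with HUVEC and mesenchymal stem cells, treated with drug combinations. Concentrations descend in half-log steps from near clinical Cmax, or from 10 microM where Cmax is unknown; viability read-out.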

[1] = second compound 0.0316 µM, first compound 0.0316 µM
[2] = second compound 0.0316 µM, first compound 0.1 µM
[3] = second compound 0.0316 µM, first compound 0.316 µM
[4] = second compound 0.0316 µM, first compound 1 µM
[5] = second compound 0.0316 µM, first compound 3.16 µM
[6] = second compound 0.0316 µM, first compound 10 µM
[7] = second compound 0.1 µM, first compound 0.0316 µM
[8] = second compound 0.1 µM, first compound 0.1 µM
[9] = second compound 0.1 µM, first compound 0.316 µM
[10] = second compound 0.1 µM, first compound 1 µM
[11] = second compound 0.1 µM, first compound 3.16 µM
[12] = second compound 0.1 µM, first compound 10 µM
[13] = second compound 0.316 µM, first compound 0.0316 µM
[14] = second compound 0.316 µM, first compound 0.1 µM
[15] = second compound 0.316 µM, first compound 0.316 µM
[16] = second compound 0.316 µM, first compound 1 µM
[17] = second compound 0.316 µM, first compound 3.16 µM
[18] = second compound 0.316 µM, first compound 10 µM
[19] = second compound 1 µM, first compound 0.0316 µM
[20] = second compound 1 µM, first compound 0.1 µM
[21] = second compound 1 µM, first compound 0.316 µM
[22] = second compound 1 µM, first compound 1 µM
[23] = second compound 1 µM, first compound 3.16 µM
[24] = second compound 1 µM, first compound 10 µM
[25] = second compound 3.16 µM, first compound 0.0316 µM
[26] = second compound 3.16 µM, first compound 0.1 µM
[27] = second compound 3.16 µM, first compound 0.316 µM
[28] = second compound 3.16 µM, first compound 1 µM
[29] = second compound 3.16 µM, first compound 3.16 µM
[30] = second compound 3.16 µM, first compound 10 µM
[31] = second compound 10 µM, first compound 0.0316 µM
[32] = second compound 10 µM, first compound 0.1 µM
[33] = second compound 10 µM, first compound 0.316 µM
[34] = second compound 10 µM, first compound 1 µM
[35] = second compound 10 µM, first compound 3.16 µM
[36] = second compound 10 µM, first compound 10 µM
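Further: viability read after seven days of drug exposure.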
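Wherever viability, T/C is given: luminescence signal used as a proxy for viable cells; 100% = DMSO vehicle control wells.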

C#Cc1c(F)ccc2cc(O)cc(-c3ncc4c(N5CC6CCC(C5)N6)nc(OCC56CCCN5CC(F)C6)nc4c3F)c12 (stereo unspecified) + Cc1[nH]c2ccc(F)cc2c1-c1nc2c3cccnc3c3ncccc3c2[nH]1
IC50 (second compound 0.0316 µM): 6400 nM | IC50 (second compound 0.1 µM): 4770 nM | IC50 (second compound 0.316 µM): 4540 nM | IC50 (second compound 1 µM): 1750 nM | IC50 (second compound 3.16 µM): < 31.6 nM | IC50 (second compound 10 µM): < 31.6 nM | viability, T/C [1]: 88.5% | viability, T/C [2]: 99.4% | viability, T/C [3]: 87.9% | viability, T/C [4]: 78.7% | viability, T/C [5]: 66.7% | viability, T/C [6]: 39.9% | viability, T/C [7]: 108% | viability, T/C [8]: 93.7% | viability, T/C [9]: 80.7% | viability, T/C [10]: 59.5% | viability, T/C [11]: 59.8% | viability, T/C [12]: 41.2% | viability, T/C [13]: 74.3% | viability, T/C [14]: 61% | viability, T/C [15]: 72.8% | viability, T/C [16]: 78.6% | viability, T/C [17]: 56.1% | viability, T/C [18]: 36.7% | viability, T/C [19]: 53% | viability, T/C [20]: 78.2% | viability, T/C [21]: 80.5% | viability, T/C [22]: 51.8% | viability, T/C [23]: 44.2% | viability, T/C [24]: 28.1% | viability, T/C [25]: 24.1% | viability, T/C [26]: 23.5% | viability, T/C [27]: 23.5% | viability, T/C [28]: 22.6% | viability, T/C [29]: 19.3% | viability, T/C [30]: 12.7% | viability, T/C [31]: 31% | viability, T/C [32]: 39.9% | viability, T/C [33]: 38.8% | viability, T/C [34]: 28.5% | viability, T/C [35]: 24.9% | viability, T/C [36]: 15.8%

C=CCn1c(=O)c2cnc(Nc3ccc(N4CCN(C)CC4)cc3)nc2n1-c1cccc(C(C)(C)O)n1 + Cc1[nH]c2ccc(F)cc2c1-c1nc2c3cccnc3c3ncccc3c2[nH]1
IC50 (second compound 0.0316 µM): 825 nM | IC50 (second compound 0.1 µM): 746 nM | IC50 (second compound 0.316 µM): 580 nM | IC50 (second compound 1 µM): 202 nM | IC50 (second compound 3.16 µM): < 31.6 nM | IC50 (second compound 10 µM): < 31.6 nM | viability, T/C [1]: 113% | viability, T/C [2]: 83.9% | viability, T/C [3]: 94% | viability, T/C [4]: 41% | viability, T/C [5]: 16.9% | viability, T/C [6]: 12.4% | viability, T/C [7]: 103% | viability, T/C [8]: 78% | viability, T/C [9]: 78.4% | viability, T/C [10]: 40.6% | viability, T/C [11]: 19.6% | viability, T/C [12]: 12.5% | viability, T/C [13]: 83% | viability, T/C [14]: 78.5% | viability, T/C [15]: 65% | viability, T/C [16]: 36.9% | viability, T/C [17]: 17.4% | viability, T/C [18]: 14% | viability, T/C [19]: 83.9% | viability, T/C [20]: 45.3% | viability, T/C [21]: 58.1% | viability, T/C [22]: 29.8% | viability, T/C [23]: 16.1% | viability, T/C [24]: 13.6% | viability, T/C [25]: 25.6% | viability, T/C [26]: 21.4% | viability, T/C [27]: 23.6% | viability, T/C [28]: 19.1% | viability, T/C [29]: 17.5% | viability, T/C [30]: 16.6% | viability, T/C [31]: 35% | viability, T/C [32]: 28.6% | viability, T/C [33]: 29.3% | viability, T/C [34]: 20.1% | viability, T/C [35]: 20.9% | viability, T/C [36]: 14.5%

COc1ncnc(C2CC2)c1-c1ncc2cnn(Cc3ccc(-c4nc(C(F)(F)F)cn4C(C)C)cc3)c2n1 + Cc1[nH]c2ccc(F)cc2c1-c1nc2c3cccnc3c3ncccc3c2[nH]1
IC50 (second compound 0.0316 µM): > 10000 nM | IC50 (second compound 0.1 µM): > 10000 nM | IC50 (second compound 0.316 µM): > 10000 nM | IC50 (second compound 1 µM): > 10000 nM | IC50 (second compound 3.16 µM): < 31.6 nM | IC50 (second compound 10 µM): < 31.6 nM | viability, T/C [1]: 86.6% | viability, T/C [2]: 67.6% | viability, T/C [3]: 77.3% | viability, T/C [4]: 57.8% | viability, T/C [5]: 66.7% | viability, T/C [6]: 75.3% | viability, T/C [7]: 74.8% | viability, T/C [8]: 57.1% | viability, T/C [9]: 87% | viability, T/C [10]: 54.6% | viability, T/C [11]: 79.9% | viability, T/C [12]: 67.6% | viability, T/C [13]: 63.8% | viability, T/C [14]: 60.6% | viability, T/C [15]: 62.8% | viability, T/C [16]: 64.5% | viability, T/C [17]: 77.3% | viability, T/C [18]: 66.6% | viability, T/C [19]: 57.8% | viability, T/C [20]: 59% | viability, T/C [21]: 60.1% | viability, T/C [22]: 50.2% | viability, T/C [23]: 50.1% | viability, T/C [24]: 57.4% | viability, T/C [25]: 20.8% | viability, T/C [26]: 27.6% | viability, T/C [27]: 22.6% | viability, T/C [28]: 28.4% | viability, T/C [29]: 27.5% | viability, T/C [30]: 26.1% | viability, T/C [31]: 28.9% | viability, T/C [32]: 29.5% | viability, T/C [33]: 26.4% | viability, T/C [34]: 27.1% | viability, T/C [35]: 32.1% | viability, T/C [36]: 32.6%
